Assay results reported in patent publication US9403827B2, “Substituted purinone compounds” (NOVARTIS AG, priority 2013, dated 2016).

These compounds were tested against human MDM2 protein (amino acids 2-188) (Homo sapiens (Human), UniProt Q00987) (assay: TR-FRET p53-MDM2 Assay 2 (modified: 0.1 nM MDM2)). Conditions: 0.1 nM MDM2, 0.1 nM Europium labeled streptavidin, Tecan genios Pro reader.
Format: binding
Procedure: Time Resolved Fluorescence Energy Transfer (TR-FRET) Assay
The inhibition of p53-MDM2 and p53-MDM4 interactions is measured by time resolved fluorescence energy transfer (TR-FRET). Fluorescence energy transfer (or Foerster resonance energy transfer) describes an energy transfer between donor and acceptor fluorescent molecules. For this assay, human MDM2 protein (amino acids 2-188) and human MDM4 protein (amino acids 2-185), tagged with a C-terminal biotin moiety, are used in combination with a Europium labeled streptavidin (Perkin Elmer, Inc., Waltham, Mass., USA) serving as the donor fluorophore. The p53 derived, Cy5 labeled peptide Cy5-TFSDLWKLL (p53 aa18-26) is the energy acceptor. Upon excitation of the donor molecule at 340 nm, binding interaction between MDM2 or MDM4 and the p53 peptide induces energy transfer and enhanced response at the acceptor emission wavelength at 665 nm.
Disruption of the formation of the p53-MDM2 or p53-MDM4 complex due to an inhibitor molecule binding to the p53 binding site of MDM2 or MDM4 results in increased donor emission at 620 nm. The ratiometric FRET assay readout is calculated from the raw data of the two distinct fluorescence signals measured in time resolved mode (fluorescence 665 nm/fluorescence 620 nm×1000).
The test is performed in white 384-well plates (Greiner Bio-One, reference 781207) in a total volume of 60 μL by adding 1 μL of compounds tested at different concentrations diluted in 100% DMSO (1.7% final DMSO concentration) in reaction buffer (PBS, 125 mM NaCl, 0.001% Novexin (consists of carbohydrate polymers), designed to increase the solubility and stability of proteins; Expedeon Ltd., Cambridgeshire, United Kingdom), 0.01% Gelatin, 0.01% 0.2%, Pluronic F-127 (block copolymer from ethylenoxide and propyleneoxide), 1 mM DTT). After addition of 1.25 nM MDM2-biotinylated or 2.5 nM MDM4-biotinylated (internal preparations, both MDM2 and MDM4 are biotinylated at the C-terminal of the peptide construct), and 0.625 nM Europium labeled streptavidin (Perkin Elmer), the solution is pre-incubated for 15 minutes at room temperature, then 10 nM Cy5-p53 peptide (internal preparation, the Cy5 dye is directly bound to the N-terminal part of p53 peptide construct) is added before an incubation at room temperature for 15 minutes prior to reading the plate. For measurement of samples, a Victor II microplate reader (Perkin Elmer) is used with the following settings: Excitation 340 nm, Emission Donor 620 nm and Emission Acceptor 665 nm. IC50 values are calculated by curve fitting using XLfit. If not specified, reagents are purchased from Sigma-Aldrich Chemie GmBH, Buchs, Switzerland.
This assay was used to evaluate compounds displaying inhibition of p53-MDM2 interaction and p53-MDM4 interaction at IC50s of 0.005 to 50 μM (p53-MDM2 Assay 1 and p53-MDM4 Assay 1, respectively). For selected compounds displaying IC50s between […] on MDM2, a slightly modified assay is used with the following adaptations: 0.1 nM MDM2, 0.1 nM Europium labeled streptavidin and Tecan genios Pro is used as a microplate reader for the fluorescence measurements (p53-MDM2 Assay 2).

Chain of human MDM2 protein (amino acids 2-188) (Q00987 2-188): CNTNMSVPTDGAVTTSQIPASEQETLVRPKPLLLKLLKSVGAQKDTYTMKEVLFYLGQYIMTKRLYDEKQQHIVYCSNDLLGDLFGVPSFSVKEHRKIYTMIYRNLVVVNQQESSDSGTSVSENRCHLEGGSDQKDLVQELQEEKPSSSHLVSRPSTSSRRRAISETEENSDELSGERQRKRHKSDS

SMILES	IC50 [nM]
COc1ncc(-c2nc3c(n2C(C)C)C(c2ccc(Cl)cc2C)N(c2cc(Cl)c(=O)n(C)c2)C(=O)N3)c(OC)n1 (centres unmarked) [Example 16, 1-(5-Chloro-1-methyl-6-oxo-1,6-dihydro-pyridin-3-yl)-6-(4-chloro-2-methyl-phenyl)-8-(2,4-dimethoxy-pyrimidin-5-yl)-7-isopropyl-1,3,6,7-tetrahydro-purin-2-one]	3.11
COc1ccc(C(=O)NCCO)cc1-c1nc2c(n1C(C)C)C(c1ccc(Cl)cc1C)N(c1cc(Cl)ccc1C)C(=O)N2 (centres unmarked) [Example 8, 3-[1-(5-Chloro-2-methyl-phenyl)-6-(4-chloro-2-methyl-phenyl)-7-isopropyl-2-oxo-2,3,6,7-tetrahydro-1H-purin-8-yl]-N-(2-hydroxy-ethyl)-4-methoxy-benzamide]	0.447
COc1nc(N(C)C)ncc1-c1nc2c(n1C(C)C)C(c1ccc(Cl)c(F)c1)N(c1cc(Cl)c[nH]c1=O)C(=O)N2 (centres unmarked) [Example 20, 1-(5-Chloro-2-oxo-1,2-dihydropyridin-3-yl)-6-(4-chloro-3-fluorophenyl)-8-(2-(dimethylamino)-4-methoxypyrimidin-5-yl)-7-isopropyl-6,7-dihydro-1H-purin-2(3H)-one]	0.354
COc1ccc(F)cc1-c1nc2c(n1C(C)C)C(c1ccc(Cl)cc1C)N(c1cc(Cl)ccc1C)C(=O)N2 (centres unmarked) [Example 7, 1-(5-Chloro-2-methyl-phenyl)-6-(4-chloro-2-methyl-phenyl)-8-(5-fluoro-2-methoxy-phenyl)-7-isopropyl-1,3,6,7-tetrahydro-purin-2-one]	0.531
COc1ccc(C(=O)N(C)C)cc1-c1nc2c(n1C(C)C)C(c1ccc(Cl)cc1C)N(c1cc(Cl)ccc1C)C(=O)N2 (centres unmarked) [Example 10, 3-[1-(5-Chloro-2-methyl-phenyl)-6-(4-chloro-2-methyl-phenyl)-7-isopropyl-2-oxo-2,3,6,7-tetrahydro-1H-purin-8-yl]-4-methoxy-N,N-dimethyl-benzamide]	0.432
COc1ccccc1-c1nc2c(n1C(C)C)C(c1ccc(C#N)cc1)N(c1cc(Cl)ccc1C)C(=O)N2 (centres unmarked) [Example 13, 4-[1-(5-Chloro-2-methyl-phenyl)-7-isopropyl-8-(2-methoxy-phenyl)-2-oxo-2,3,6,7-tetrahydro-1H-purin-6-yl]-benzonitrile]	0.724
COc1ncc(-c2nc3c(n2C(C)C)C(c2ccc(Cl)c(F)c2)N(c2cc(Cl)c(=O)n(C)c2)C(=O)N3)c(OC)n1 (centres unmarked) [Example 19, 1-(5-Chloro-1-methyl-6-oxo-1,6-dihydropyridin-3-yl)-6-(4-chloro-3-fluorophenyl)-8-(2,4-dimethoxypyrimidin-5-yl)-7-isopropyl-6,7-dihydro-1H-purin-2(3H)-one]	0.93
COc1nc(N)ncc1-c1nc2c(n1C(C)C)C(c1ccc(Cl)cc1)N(c1cc(Cl)cn(C)c1=O)C(=O)N2 (centres unmarked) [Example 21, 8-(2-Amino-4-methoxypyrimidin-5-yl)-1-(5-chloro-1-methyl-2-oxo-1,2-dihydropyridin-3-yl)-6-(4-chlorophenyl)-7-isopropyl-6,7-dihydro-1H-purin-2(3H)-one]	4.3
COc1ncc(-c2nc3c(n2C(C)C)C(c2ccc(Cl)cc2)N(c2cc(Cl)cn(C)c2=O)C(=O)N3)c(OC)n1 (centres unmarked) [Example 18, 1-(5-Chloro-1-methyl-2-oxo-1,2-dihydropyridin-3-yl)-6-(4-chlorophenyl)-8-(2,4-dimethoxypyrimidin-5-yl)-7-isopropyl-6,7-dihydro-1H-purin-2(3H)-one]	2.91
COc1ccccc1-c1nc2c(n1C(C)C)C(c1ccc(C#N)cc1)N(c1cccc(Cl)c1F)C(=O)N2 (centres unmarked) [Example 14, 4-(1-(3-Chloro-2-fluorophenyl)-7-isopropyl-8-(2-methoxyphenyl)-2-oxo-2,3,6,7-tetrahydro-1H-purin-6-yl)benzonitrile]	0.473
COc1ccc(CO)cc1-c1nc2c(n1C(C)C)C(c1ccc(Cl)cc1C)N(c1cc(Cl)ccc1C)C(=O)N2 (centres unmarked) [Example 11, 1-(5-Chloro-2-methyl-phenyl)-6-(4-chloro-2-methyl-phenyl)-8-(5-hydroxymethyl-2-methoxy-phenyl)-7-isopropyl-1,3,6,7-tetrahydro-purin-2-one]	0.371
